In ChEMBL document CHEMBL3885861, “Open TG-GATES”:

Species: Rattus norvegicus
Assay: Open TG-GATES - Regimen: Daily Repeat
Format: toxicity, organism-based, Sprague-Dawley
Parameters: regimen Daily Repeat, gender Male, age 6 weeks
Conditions: in vivo, po, 100 mg/kg, route gavage, dose level Middle; for APTT / Bas / Eos / Fbg / Hb / Ht / Lym / MCH / MCHC / MCV / Mono / Neu / PT / Plat / RBC / Ret / WBC: tissue Blood; for KIDNEY_L / KIDNEY_R / KIDNEY_TOTAL: tissue Kidney; for LIVER: tissue Liver; for A/G / ALP / ALT / AST / BUN / CRE / Ca / Cl / DBIL / GLC / IP / K / LDH / Na / PL / RALB / TBIL / TC / TG / TP / gamma-GTP: tissue Plasma

SMILES: CC(=O)Nc1ccc2c(c1)Cc1ccccc1-2 [2-ACETYLAMINOFLUORENE]
- TERMINAL_BW (72 h, time 3 day): 202.9 g
- APTT (72 h, time 3 day): 20.1 s
- Bas (72 h, time 3 day): 0.8%
- Eos (72 h, time 3 day): 0.8%
- Fbg (72 h, time 3 day): 260.6 mg/dL
- Hb (72 h, time 3 day): 15.7 g/dL
- Ht (72 h, time 3 day): 45.1%
- Lym (72 h, time 3 day): 72.4%
- MCH (72 h, time 3 day): 21.9 pg
- MCHC (72 h, time 3 day): 34.9%
- MCV (72 h, time 3 day): 62.7 fL
- Mono (72 h, time 3 day): 2.8%
- Neu (72 h, time 3 day): 22.4%
- PT (72 h, time 3 day): 12.7 s
- Plat (72 h, time 3 day): 133.7 x10_4/uL
- RBC (72 h, time 3 day): 718.2 x10_4/ul
- Ret (72 h, time 3 day): 3.6%
- WBC (72 h, time 3 day): 85 x10_2/uL
- KIDNEY_L (72 h, time 3 day): 1 g
- KIDNEY_R (72 h, time 3 day): 0.9 g
- KIDNEY_TOTAL (72 h, time 3 day): 1.9 g
- LIVER (72 h, time 3 day): 8.8 g
- A/G (72 h, time 3 day): 1.4
- ALP (72 h, time 3 day): 615.4 IU/L
- ALT (72 h, time 3 day): 24 IU/L
- AST (72 h, time 3 day): 70.8 IU/L
- BUN (72 h, time 3 day): 11.4 mg/dL
- CRE (72 h, time 3 day): 0.4 mg/dL
- Ca (72 h, time 3 day): 10.1 mg/dL
- Cl (72 h, time 3 day): 104.4 meq/L
- DBIL (72 h, time 3 day): 0.076 mg/dL
- GLC (72 h, time 3 day): 191 mg/dL
- IP (72 h, time 3 day): 8.2 mg/dL
- K (72 h, time 3 day): 4.3 meq/L
- LDH (72 h, time 3 day): 220.8 IU/L
- Na (72 h, time 3 day): 141.6 meq/L
- PL (72 h, time 3 day): 86.2 mg/dL
- RALB (72 h, time 3 day): 2.9 g/dL
- TBIL (72 h, time 3 day): 0.1 mg/dL
- TC (72 h, time 3 day): 45.4 mg/dL
- TG (72 h, time 3 day): 47.6 mg/dL
- TP (72 h, time 3 day): 5 g/dL
- gamma-GTP (72 h, time 3 day): 1.2 IU/L
- TERMINAL_BW ([…], time 7 day): 214.1 g
- TERMINAL_BW ([…], time 14 day): 247.1 g
- TERMINAL_BW ([…], time 28 day): 286 g
- APTT ([…], time 7 day): 20.2 s
- Bas ([…], time 7 day): 0.8%
- Eos ([…], time 7 day): 0.6%
- Fbg ([…], time 7 day): 167.8 mg/dL
- Hb ([…], time 7 day): 14.7 g/dL
- Ht ([…], time 7 day): 41.6%
- Lym ([…], time 7 day): 83%
- MCH ([…], time 7 day): 20.5 pg
- MCHC ([…], time 7 day): 35.3%
- MCV ([…], time 7 day): 58.1 fL
- Mono ([…], time 7 day): 2.8%
- Neu ([…], time 7 day): 12.2%
- PT ([…], time 7 day): 13.8 s
- Plat ([…], time 7 day): 174.6 x10_4/uL
- RBC ([…], time 7 day): 715.8 x10_4/ul
- Ret ([…], time 7 day): 1.2%
- WBC ([…], time 7 day): 106.3 x10_2/uL
- APTT ([…], time 14 day): 18.3 s
- Bas ([…], time 14 day): 0.8%
- Eos ([…], time 14 day): 0%
- Fbg ([…], time 14 day): 106.8 mg/dL
- Hb ([…], time 14 day): 13.1 g/dL
- Ht ([…], time 14 day): 38.5%
- Lym ([…], time 14 day): 74.6%
- MCH ([…], time 14 day): 19.7 pg
- MCHC ([…], time 14 day): 34.1%
- MCV ([…], time 14 day): 57.7 fL
- Mono ([…], time 14 day): 3%
- Neu ([…], time 14 day): 21%
- PT ([…], time 14 day): 15.2 s
- Plat ([…], time 14 day): 144.4 x10_4/uL
- RBC ([…], time 14 day): 667 x10_4/ul
- Ret ([…], time 14 day): 6.3%
- WBC ([…], time 14 day): 169.9 x10_2/uL
- APTT ([…], time 28 day): 22.1 s
- Bas ([…], time 28 day): 0.2%
- Eos ([…], time 28 day): 0%
- Fbg ([…], time 28 day): 74.4 mg/dL
- Hb ([…], time 28 day): 13.6 g/dL
- Ht ([…], time 28 day): 40.8%
- Lym ([…], time 28 day): 61.6%
- MCH ([…], time 28 day): 20.5 pg
- MCHC ([…], time 28 day): 33.4%
- MCV ([…], time 28 day): 61.3 fL
- Mono ([…], time 28 day): 2.8%
- Neu ([…], time 28 day): 34.2%
- PT ([…], time 28 day): 18.8 s
- Plat ([…], time 28 day): 149.9 x10_4/uL
- RBC ([…], time 28 day): 667.6 x10_4/ul
- Ret ([…], time 28 day): 6.6%
- WBC ([…], time 28 day): 220.7 x10_2/uL
- KIDNEY_L ([…], time 7 day): 1 g
- KIDNEY_R ([…], time 7 day): 0.9 g
- KIDNEY_TOTAL ([…], time 7 day): 1.9 g
- KIDNEY_L ([…], time 14 day): 1.1 g
- KIDNEY_R ([…], time 14 day): 1.1 g
- KIDNEY_TOTAL ([…], time 14 day): 2.2 g
- KIDNEY_L ([…], time 28 day): 1.3 g
- KIDNEY_R ([…], time 28 day): 1.3 g
- KIDNEY_TOTAL ([…], time 28 day): 2.5 g
- LIVER ([…], time 7 day): 9.2 g
- LIVER ([…], time 14 day): 10.6 g
- LIVER ([…], time 28 day): 11.7 g
- A/G ([…], time 7 day): 1.5
- ALP ([…], time 7 day): 822.2 IU/L
- ALT ([…], time 7 day): 33.8 IU/L
- AST ([…], time 7 day): 83.4 IU/L
- BUN ([…], time 7 day): 11.4 mg/dL
- CRE ([…], time 7 day): 0.4 mg/dL
- Ca ([…], time 7 day): 9.8 mg/dL
- Cl ([…], time 7 day): 105.4 meq/L
- DBIL ([…], time 7 day): 0.098 mg/dL
- GLC ([…], time 7 day): 170.6 mg/dL
- IP ([…], time 7 day): 6 mg/dL
- K ([…], time 7 day): 4.1 meq/L
- LDH ([…], time 7 day): 274.8 IU/L
- Na ([…], time 7 day): 139.8 meq/L
- PL ([…], time 7 day): 93 mg/dL
- RALB ([…], time 7 day): 2.6 g/dL
- TBIL ([…], time 7 day): 0.2 mg/dL
- TC ([…], time 7 day): 37.6 mg/dL
- TG ([…], time 7 day): 75.2 mg/dL
- TP ([…], time 7 day): 4.4 g/dL
- gamma-GTP ([…], time 7 day): 1 IU/L
- A/G ([…], time 14 day): 1.3
- ALP ([…], time 14 day): 791.2 IU/L
- ALT ([…], time 14 day): 41 IU/L
- AST ([…], time 14 day): 83.6 IU/L
- BUN ([…], time 14 day): 13.6 mg/dL
- CRE ([…], time 14 day): 0.5 mg/dL
- Ca ([…], time 14 day): 9.6 mg/dL
- Cl ([…], time 14 day): 103.4 meq/L
- DBIL ([…], time 14 day): 0.6 mg/dL
- GLC ([…], time 14 day): 157 mg/dL
- IP ([…], time 14 day): 7.8 mg/dL
- K ([…], time 14 day): 4.1 meq/L
- LDH ([…], time 14 day): 206 IU/L
- Na ([…], time 14 day): 141 meq/L
- PL ([…], time 14 day): 104.8 mg/dL
- RALB ([…], time 14 day): 2.3 g/dL
- TBIL ([…], time 14 day): 0.7 mg/dL
- TC ([…], time 14 day): 43.4 mg/dL
- TG ([…], time 14 day): 64.6 mg/dL
- TP ([…], time 14 day): 4.1 g/dL
- gamma-GTP ([…], time 14 day): 2 IU/L
- A/G ([…], time 28 day): 1.1
- ALP ([…], time 28 day): 1005.4 IU/L
- ALT ([…], time 28 day): 58.8 IU/L
- AST ([…], time 28 day): 126.6 IU/L
- BUN ([…], time 28 day): 12.4 mg/dL
- CRE ([…], time 28 day): 0.4 mg/dL
- Ca ([…], time 28 day): 8.9 mg/dL
- Cl ([…], time 28 day): 104.6 meq/L
- DBIL ([…], time 28 day): 1.2 mg/dL
- GLC ([…], time 28 day): 146 mg/dL
- IP ([…], time 28 day): 6.7 mg/dL
- K ([…], time 28 day): 3.9 meq/L
- LDH ([…], time 28 day): 264.4 IU/L
- Na ([…], time 28 day): 141 meq/L
- PL ([…], time 28 day): 128.8 mg/dL
- RALB ([…], time 28 day): 2 g/dL
- TBIL ([…], time 28 day): 1.6 mg/dL
- TC ([…], time 28 day): 55.4 mg/dL
- TG ([…], time 28 day): 76.2 mg/dL
- TP ([…], time 28 day): 3.9 g/dL
- gamma-GTP ([…], time 28 day): 9.6 IU/L
